{"source": "patent US20210045385A1", "about": "“PYRIDAZINONE-SUBSTITUTED KETOXIMES AS HERBICIDES” (FMC Corporation, priority 2018, published 2021)", "format_in_all_cases": "in vivo", "key": {"[1]": {"test_system": "ragweed (common ragweed, Ambrosia elatior)", "assay": "Test A preemergence, visual plant response rating", "in_short": "(§1)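 Ratings use a 0–100 visual scale (100 = complete control) against untreated controls, scored about 10 days after greenhouse treatment. Test chemicals were formulated in surfactant-containing non-phytotoxic solvent and applied either as soil spray after planting (preemergence) or onto one- to two-leaf, 2–10 cm plants (postemergence).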"}, "[2]": {"test_system": "foxtail, giant (giant foxtail, Setaria faberii)", "assay": "Test A preemergence, visual plant response rating", "in_short": "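Compared with untreated controls, treated plants received a visual injury score on a 0–100 scale around 10 days after application. The compound, in a non-phytotoxic solvent with surfactant, was given as a preemergence soil spray or postemergence at the one- to two-leaf stage.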"}, "[3]": {"test_system": "barnyardgrass (Echinochloa crus-galli)", "assay": "Test A preemergence, visual plant response rating", "in_short": "as §1"}, "[4]": {"test_system": "Italian ryegrass (Lolium multiflorum)", "assay": "Test A preemergence, visual plant response rating", "in_short": "as §1"}, "[5]": {"test_system": "pigweed (Amaranthus retroflexus)", "assay": "Test A preemergence, visual plant response rating", "in_short": "as §1"}, "[6]": {"test_system": "kochia (Kochia scoparia)", "assay": "Test A preemergence, visual plant response rating", "in_short": "as §1"}, "[7]": {"test_system": "ragweed (common ragweed, Ambrosia elatior)", "assay": "Test A postemergence, visual plant response rating", "in_short": "as §1"}, "[8]": {"test_system": "galium (catchweed bedstraw, Galium aparine)", "assay": "Test A postemergence, visual plant response rating", "in_short": "as §1"}, "[9]": {"test_system": "foxtail, giant (giant foxtail, Setaria faberii)", "assay": "Test A postemergence, visual plant response rating", "in_short": "as §1"}, "[10]": {"test_system": "barnyardgrass (Echinochloa crus-galli)", "assay": "Test A postemergence, visual plant response rating", "in_short": "as §1"}, "[11]": {"test_system": "Italian ryegrass (Lolium multiflorum)", "assay": "Test A postemergence, visual plant response rating", "in_short": "as §1"}, "[12]": {"test_system": "corn (Zea mays)", "assay": "Test A postemergence, visual plant response rating", "in_short": "as §1"}, "[13]": {"test_system": "wheat (Triticum aestivum)", "assay": "Test A postemergence, visual plant response rating", "in_short": "as §1"}, "[14]": {"test_system": "pigweed (Amaranthus retroflexus)", "assay": "Test A postemergence, visual plant response rating", "in_short": "as §1"}, "[15]": {"test_system": "kochia (Kochia scoparia)", "assay": "Test A postemergence, visual plant response rating", "in_short": "as §1"}, "[16]": {"test_system": "blackgrass (Alopecurus myosuroides)", "assay": "Test A postemergence, visual plant response rating", "in_short": "as §1"}, "[17]": {"test_system": "rice (Oryza sativa)", "assay": "Test B flooded paddy test, visual plant response rating", "settings": "250 g ai/ha, Flood, applied to paddy water, 2-leaf stage, evaluated after 13 to 15 days", "in_short": "(§2)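 2-leaf plants; pots flooded 3 cm over soil surface; compound dosed straight into the floodwater; depth kept constant; greenhouse 13–15 d; visual rating vs. untreated controls.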"}, "[18]": {"test_system": "ducksalad (Heteranhera limosa)", "assay": "Test B flooded paddy test, visual plant response rating", "settings": "250 g ai/ha, Flood, applied to paddy water, 2-leaf stage, evaluated after 13 to 15 days", "in_short": "as §2"}, "[19]": {"test_system": "barnyardgrass (Echinochloa crus-galli)", "assay": "Test B flooded paddy test, visual plant response rating", "settings": "250 g ai/ha, Flood, applied to paddy water, 2-leaf stage, evaluated after 13 to 15 days", "in_short": "as §2"}, "[20]": {"test_system": "sedge, umbrella (small-flower umbrella sedge, Cyperus difformis)", "assay": "Test B flooded paddy test, visual plant response rating", "settings": "250 g ai/ha, Flood, applied to paddy water, 2-leaf stage, evaluated after 13 to 15 days", "in_short": "as §2"}, "[21]": {"settings": "125 g ai/ha, preemergence, 0 to 100 scale, 0 no effect, 100 complete control"}, "[22]": {"settings": "500 g ai/ha Preemergence, approx. 10 days"}, "[23]": {"settings": "500 g ai/ha, postemergence, 0 is no effect, 100 is complete control"}, "[24]": {"settings": "Postemergence, 125 g ai/ha, 0 to 100 scale (0 no effect, 100 complete control)"}}, "data": [{"smiles": "CON=C(c1cccc(C)c1F)c1c(O)c(C)nn(C)c1=O", "note": "[Compound 70]", "values": [{"measurement": "Ragweed plant response rating", "setting": "[1]; [21]", "result": 70}, {"measurement": "Ragweed plant response rating (0 to 100 scale)", "setting": "[1]; [22]", "result": 80}, {"measurement": "Foxtail, Giant plant response rating", "setting": "[2]; [21]", "result": 0}, {"measurement": "Foxtail, Giant plant response rating (0 to 100 scale)", "setting": "[2]; [22]", "result": 10}, {"measurement": "Barnyardgrass plant response rating", "setting": "[3]; [21]", "result": 0}, {"measurement": "Barnyardgrass plant response rating (0 to 100 scale)", "setting": "[3]; [22]", "result": 10}, {"measurement": "Ryegrass, Italian plant response rating", "setting": "[4]; [21]", "result": 0}, {"measurement": "Ryegrass, Italian plant response rating (0 to 100 scale)", "setting": "[4]; [22]", "result": 10}, {"measurement": "Pigweed plant response rating", "setting": "[5]; [21]", "result": 0}, {"measurement": "Pigweed plant response rating (0 to 100 scale)", "setting": "[5]; [22]", "result": 40}, {"measurement": "Kochia plant response rating", "setting": "[6]; [21]", "result": 0}, {"measurement": "Kochia plant response rating (0 to 100 scale)", "setting": "[6]; [22]", "result": 50}, {"measurement": "Ragweed plant response rating (0 to 100 scale)", "setting": "[7]; [23]", "result": 80}, {"measurement": "Ragweed plant response rating", "setting": "[7]; [24]", "result": 80}, {"measurement": "Galium plant response rating (0 to 100 scale)", "setting": "[8]; [23]", "result": 80}, {"measurement": "Galium plant response rating", "setting": "[8]; [24]", "result": 70}, {"measurement": "Foxtail, Giant plant response rating (0 to 100 scale)", "setting": "[9]; [23]", "result": 40}, {"measurement": "Foxtail, Giant plant response rating", "setting": "[9]; [24]", "result": 0}, {"measurement": "Barnyardgrass plant response rating (0 to 100 scale)", "setting": "[10]; [23]", "result": 30}, {"measurement": "Barnyardgrass plant response rating", "setting": "[10]; [24]", "result": 0}, {"measurement": "Ryegrass, Italian plant response rating (0 to 100 scale)", "setting": "[11]; [23]", "result": 70}, {"measurement": "Ryegrass, Italian plant response rating", "setting": "[11]; [24]", "result": 0}, {"measurement": "Corn plant response rating (0 to 100 scale)", "setting": "[12]; [23]", "result": 0}, {"measurement": "Corn plant response rating", "setting": "[12]; [24]", "result": 0}, {"measurement": "Wheat plant response rating (0 to 100 scale)", "setting": "[13]; [23]", "result": 0}, {"measurement": "Wheat plant response rating", "setting": "[13]; [24]", "result": 0}, {"measurement": "Pigweed plant response rating (0 to 100 scale)", "setting": "[14]; [23]", "result": 90}, {"measurement": "Pigweed plant response rating", "setting": "[14]; [24]", "result": 80}, {"measurement": "Kochia plant response rating (0 to 100 scale)", "setting": "[15]; [23]", "result": 80}, {"measurement": "Kochia plant response rating", "setting": "[15]; [24]", "result": 70}, {"measurement": "Blackgrass plant response rating (0 to 100 scale)", "setting": "[16]; [23]", "result": 30}, {"measurement": "Blackgrass plant response rating", "setting": "[16]; [24]", "result": 0}, {"measurement": "Plant response rating, Rice (0 to 100 scale, 0 is no effect, 100 is complete control)", "setting": "[17]", "result": 0}, {"measurement": "Plant response rating, Ducksalad (0 to 100 scale, 0 is no effect, 100 is complete control)", "setting": "[18]", "result": 0}, {"measurement": "Plant response rating, Barnyardgrass (0 to 100 scale, 0 is no effect, 100 is complete control)", "setting": "[19]", "result": 0}, {"measurement": "Plant response rating, Sedge, Umbrella (0 to 100 scale, 0 is no effect, 100 is complete control)", "setting": "[20]", "result": 0}]}]}
